No end group written: not given here.
System: production of cAMP under stimulation by TSAb
Experiment: Test Example 2: cAMP produced under stimulation by TSAb in FRTL5 cells (96-well)
Format: cell-based, rat
Details: TSAb positive IgG
Procedure: Using rat established thyroid cell line FRTL5, the influence of the peptide over the production of cAMP under stimulation by TSAb, was examined in accordance with the method of S. Kosugi et al. (Endocrinology, Vol. 125, No. 1, p 410 (1989)). The method will be described as follows.
Preincubated FRTL5 cells (1.5×10^5 cells/ml) were transferred to a multiplate having 96 wells in an amount of 100 μl per well and incubated in a CO2 incubator for 6 days while changing the medium (having TSH excluded). Then, the medium was removed and the cells were rinsed and subjected to the test. 40 μl of a solution of IgG from TSAb positive serum and 10 μl of a solution containing 0, 15 or 30 μg of the desired peptide were reacted in a test tube at 4° C. for 20 hours. To this reaction solution, 5 μl of a 0.5 mM solution of 3-isobutyl-1-methylxanthine was added, and 50 μl of this reaction solution was added to the previously prepared FRTL5 cells, followed by incubation at 37° C. for two hours.
On the other hand, as control, a test was conducted in the same manner using a normal serum.
With respect to each sample, the quantitative analysis of cAMP produced under stimulation by TSAb was conducted by means of a commercially available cAMP-radioimmunoassay kit (1-VQ12, manufactured by Eiken Kagaku Corporation).

For EQEDEIIGFG [Peptide No. 8], the Inhibition rate (15 μg/well peptide) was 54%, the cAMP (15 μg/well peptide) was 3.2 nM and the Inhibition rate (30 μg/well peptide) was 76%. The cAMP (30 μg/well peptide) was 1.8 nM.
